For orientation: IC50 means the midpoint of a concentration-inhibition curve.

Data on four compounds can be found in patent US20030153009A1, “Method for influencing kinase activity with AG879” (priority 2002, published 2003).

Assay [1] deals with PAK1. The settings on record: cited from earlier work.
Assay [2] has as its system RAS transformation of cells. The settings on record: in vitro and in vivo (b6); malignant transformation of cells (b7); cited from earlier work.
The test system of assay [3] is PAK1. The assay can be described thus: PAK kinase assay on PAK1 immunoprecipitated from AG879-treated RAS cells. Type of assay: cell-based. The settings on record: RAS cells serum starved, AG879 0.01-10 μM for 1 hour; all concentrations tested.
Description: RAS cells, which are NIH 3T3 fibroblasts transformed with v-Ha-RAS, were serum starved, overnight, and were then incubated with varying concentrations of AG879 (0.01-10 μM), for 1 hour. Following the hour of culture, the cells were lysed in lysis buffer (40 mM HEPES, pH 7.4, 1% Nonidet P-40, 1 mM EDTA, 100 mM NaCl, 25 mM NaF, 100 μM NaVO3, 1 MM phenylmethyl sulfonyl fluoride, and 100 units/ml aprotonin). Lysates were tested, via Bradford assay, to determine protein content, and those containing 1 mg of protein were admixed with an anti-PAK1 antibody to immunoprecipitate proteins.
Once the proteins were immunoprecipitated, they were analyzed in a PAK kinase assay, as described by Tang, et. al., Mol. Cell Biol 17: 4454-4464 (1997); He, et. al., Cancer J. 7:191-202 (2001), He, et. al., Cancer J 6:243-248 (2000); Obemeier, et. al., EMBO J 17:4328-4339 (1998), all of which are incorporated by reference.
The target of another assay is GST-PAK1 (Homo sapiens, UniProt Q13153). The assay can be described thus: Kinase assay with fusion protein GST-PAK1. Type of assay: biochemical. The settings on record: even at 10 μM. As for the experimental part:
In follow up experiments a fusion protein “GST-PAK1” was prepared, and tested in the same way.

Assay [4] has as its system RAS cells (NIH 3T3 fibroblasts transformed with v-Ha-RAS). Nature of the assay: Colony formation of RAS cells in 0.35% top agar, 3 weeks. Type of assay: cell-based. The settings on record: colonies containing more than 100 cells, average of two experiments, read-out: IC50 for large colony formation.
From the text: After three weeks, the colonies were stained, and counted, using standard methods. The control used was non-treated cells, plated into the same type of medium.
Another assay has as its system RAS cells. Nature of the assay: Anchorage dependent growth, follow up experiments. The class given is cell-based. The settings on record: as much as 1 μM. The source says: The experiments which follow were designed to address this question.
The target of a further assay is T1, ETK-PAK1 association (Mus musculus, UniProt P97504).
T1 construct: RAS cells were again lysed and immunoprecipitated with an anti-ETK antibody; endogenous in cells; host or cells: RAS cells (v-Ha-RAS transformed NIH 3T3 fibroblasts)
T1 sequence (P97504 1-651): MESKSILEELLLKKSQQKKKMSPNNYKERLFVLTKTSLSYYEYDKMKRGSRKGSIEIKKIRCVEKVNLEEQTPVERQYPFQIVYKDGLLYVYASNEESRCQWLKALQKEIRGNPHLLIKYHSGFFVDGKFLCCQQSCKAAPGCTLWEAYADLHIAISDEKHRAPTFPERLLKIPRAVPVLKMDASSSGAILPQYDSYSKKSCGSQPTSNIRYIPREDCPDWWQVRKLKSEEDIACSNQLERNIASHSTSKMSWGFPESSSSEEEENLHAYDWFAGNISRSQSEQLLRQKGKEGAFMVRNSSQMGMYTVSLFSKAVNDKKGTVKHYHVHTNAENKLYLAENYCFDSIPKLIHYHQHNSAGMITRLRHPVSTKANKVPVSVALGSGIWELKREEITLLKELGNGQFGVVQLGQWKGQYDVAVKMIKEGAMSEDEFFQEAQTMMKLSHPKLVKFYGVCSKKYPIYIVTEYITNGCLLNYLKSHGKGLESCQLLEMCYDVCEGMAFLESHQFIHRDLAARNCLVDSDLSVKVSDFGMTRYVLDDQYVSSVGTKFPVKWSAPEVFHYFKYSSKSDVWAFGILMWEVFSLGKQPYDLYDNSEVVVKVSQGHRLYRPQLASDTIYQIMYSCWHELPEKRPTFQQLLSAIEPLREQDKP
The assay can be described thus: ETK-PAK1 association in AG879-treated RAS cells. The class given is cell-based. The settings on record: 10 nM. The protocol: (§1) Experiments were designed to determine if AG879 affected the Tyr activity of ETK. To do so, serum starved RAS cells were treated, with varying concentrations of AG879 for 1 hour. Cell lysates were prepared using, as lysis buffer, 20 mM Tris-HCl (pH 7.5), 100 mM NaCl, 10% glycerol, 1% Nonidet P-40, 10 mM NaF, 100 μM NaVO3, 1 mM phenylmethylsulfonyl fluoride, and 100 units/ml of aprotonin. Lysates were treated either with a rabbit, anti-ETK antibody, as an anti-phospo Tyr antibody, to immunoprecipitate the enzyme, and an ETK kinase assay was performed, in accordance with Chen, et. al., Nat. Cell Biol. 3:439-444 (2001); and Bagheri-Yarmand, et. al., supra, both of which are incorporated by reference. Endogenous PAK1, associated with ETK was used as a substrate, in either the absence, or varying concentrations of AG879.

Assay [5] has as its system PAK1. The assay can be described thus: Tyr phosphorylation of PAK1 in AG879-treated RAS cells. Type of assay: cell-based. The settings on record: 10 nM. As for the experimental part: as §1
The target of another assay is T2, TEC (Homo sapiens, UniProt P42680).
T2 sequence (P42680 1-631): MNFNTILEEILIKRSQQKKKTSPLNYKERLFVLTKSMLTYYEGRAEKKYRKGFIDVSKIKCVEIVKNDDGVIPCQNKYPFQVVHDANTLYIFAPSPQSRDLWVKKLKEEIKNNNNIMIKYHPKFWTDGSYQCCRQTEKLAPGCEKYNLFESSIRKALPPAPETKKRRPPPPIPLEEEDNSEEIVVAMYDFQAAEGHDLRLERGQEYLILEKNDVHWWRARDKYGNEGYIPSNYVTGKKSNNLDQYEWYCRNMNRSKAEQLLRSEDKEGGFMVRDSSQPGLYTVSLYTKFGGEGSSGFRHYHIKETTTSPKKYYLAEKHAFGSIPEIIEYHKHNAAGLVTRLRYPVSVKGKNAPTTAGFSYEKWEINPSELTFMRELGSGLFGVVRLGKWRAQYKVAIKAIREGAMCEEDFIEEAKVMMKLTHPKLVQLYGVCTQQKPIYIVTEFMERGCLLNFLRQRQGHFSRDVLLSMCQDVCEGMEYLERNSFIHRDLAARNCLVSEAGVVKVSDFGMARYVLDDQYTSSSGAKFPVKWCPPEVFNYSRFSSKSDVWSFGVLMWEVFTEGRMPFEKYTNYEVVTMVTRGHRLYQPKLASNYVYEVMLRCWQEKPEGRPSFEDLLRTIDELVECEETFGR
The assay can be described thus: In vitro kinase assay, TEC family member TEC. Type of assay: biochemical. The settings on record: concentration as high as 10 μM.

Another assay concerns the target BTK (Homo sapiens, UniProt Q06187). Nature of the assay: In vitro kinase assay, TEC family member BTK. Type of assay: biochemical. The settings on record: concentration as high as 10 μM.
The target of the next assay is T3, ITK (Homo sapiens, UniProt Q08881).
T3 sequence (Q08881 1-620): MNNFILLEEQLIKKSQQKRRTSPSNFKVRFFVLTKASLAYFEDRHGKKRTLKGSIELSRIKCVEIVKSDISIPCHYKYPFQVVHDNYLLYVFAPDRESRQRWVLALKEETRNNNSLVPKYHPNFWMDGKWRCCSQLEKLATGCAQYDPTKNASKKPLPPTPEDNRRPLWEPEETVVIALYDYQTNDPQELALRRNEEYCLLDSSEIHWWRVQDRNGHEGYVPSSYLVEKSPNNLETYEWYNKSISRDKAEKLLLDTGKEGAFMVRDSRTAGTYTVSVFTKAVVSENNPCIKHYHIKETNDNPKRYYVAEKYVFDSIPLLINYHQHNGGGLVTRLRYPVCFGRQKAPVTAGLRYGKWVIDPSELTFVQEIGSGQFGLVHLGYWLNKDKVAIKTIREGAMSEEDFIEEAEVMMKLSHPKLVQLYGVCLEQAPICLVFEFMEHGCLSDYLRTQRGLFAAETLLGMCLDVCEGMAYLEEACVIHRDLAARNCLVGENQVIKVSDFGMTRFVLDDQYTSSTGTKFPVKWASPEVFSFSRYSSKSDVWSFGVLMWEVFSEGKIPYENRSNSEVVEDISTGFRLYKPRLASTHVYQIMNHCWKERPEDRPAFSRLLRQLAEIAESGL
The assay can be described thus: In vitro kinase assay, TEC family member ITK. The class given is biochemical. The settings on record: concentration as high as 10 μM.

The next assay concerns the target T4, FAK (Mus musculus, UniProt P34152).
T4 construct: RAS cells were again serum starved, lysed, and immunoprecipitated using an anti-FAK antibody; endogenous in cells; host or cells: RAS cells (v-Ha-RAS transformed NIH 3T3 fibroblasts)
The assay can be described thus: Tyr phosphorylation of FAK in RAS cells (anti-FAK immunoprecipitation, blot). Type of assay: cell-based. The source says:
(§2) In order to determine this, RAS cells were again serum starved, lysed, and immunoprecipitated using an anti-FAK antibody. The precipitates were then blotted, using either anti-phospo Tyr, anti-ETK, or anti-PAK1 antibodies, separately.

The next assay concerns the target T5, FAK-ETK interaction (Mus musculus, UniProt P97504).
T5 construct: blotted, using either anti-phospo Tyr, anti-ETK, or anti-PAK1 antibodies; endogenous in cells; host or cells: RAS cells (v-Ha-RAS transformed NIH 3T3 fibroblasts)
T5 sequence (P97504 1-651): T1 sequence (P97504 1-651)
The assay can be described thus: FAK association with ETK in RAS cells. Type of assay: cell-based.
From the text: as §2

The next assay deals with FAK-PAK1 interaction. The assay can be described thus: FAK-PAK1 interaction in RAS cells. Type of assay: cell-based. The settings on record: 10 nM.
From the text: as §2

A further assay concerns RAS induced sarcomas. The settings on record: nude mouse model; cited from earlier work.
The next assay concerns the target ErbB2 (Homo sapiens, UniProt P04626). The settings on record: cited from earlier work.
In a further assay the test system is FLK-1. The settings on record: cited from earlier work.
Assay [6] concerns the target T6, ETK (Mus musculus, UniProt P97504).
T6 sequence (P97504 1-651): T1 sequence (P97504 1-651)
The assay can be described thus: Tyrosine phosphorylation of ETK in AG879-treated RAS cells (immunoprecipitation). The class given is cell-based. Also noted: endogenous in cells; host or cells: RAS cells (v-Ha-RAS transformed NIH 3T3 fibroblasts). The settings on record: 1 hour. The protocol:
as §1

In assay [7] the target is T6, ETK. Nature of the assay: In vitro kinase assay with ETK immunoprecipitated from RAS cells. The class given is biochemical. On the set-up: RAS cells were again lysed and immunoprecipitated with an anti-ETK antibody; endogenous in cells; host or cells: RAS cells (v-Ha-RAS transformed NIH 3T3 fibroblasts). The protocol:
These experiments were designed to determined how AG879 inhibited ETK activity, i.e., was the inhibition direct, or indirect? To test this, RAS cells were again lysed and immunoprecipitated with an anti-ETK antibody, as described supra. Following this, the immunoprecipitates were used in an in vitro kinase assay, using no, or varying concentrations, of AG879 (0.001-10 μM), as described supra. Two, independent experiments, were carried out.

T4 sequence (P34152 whole entry): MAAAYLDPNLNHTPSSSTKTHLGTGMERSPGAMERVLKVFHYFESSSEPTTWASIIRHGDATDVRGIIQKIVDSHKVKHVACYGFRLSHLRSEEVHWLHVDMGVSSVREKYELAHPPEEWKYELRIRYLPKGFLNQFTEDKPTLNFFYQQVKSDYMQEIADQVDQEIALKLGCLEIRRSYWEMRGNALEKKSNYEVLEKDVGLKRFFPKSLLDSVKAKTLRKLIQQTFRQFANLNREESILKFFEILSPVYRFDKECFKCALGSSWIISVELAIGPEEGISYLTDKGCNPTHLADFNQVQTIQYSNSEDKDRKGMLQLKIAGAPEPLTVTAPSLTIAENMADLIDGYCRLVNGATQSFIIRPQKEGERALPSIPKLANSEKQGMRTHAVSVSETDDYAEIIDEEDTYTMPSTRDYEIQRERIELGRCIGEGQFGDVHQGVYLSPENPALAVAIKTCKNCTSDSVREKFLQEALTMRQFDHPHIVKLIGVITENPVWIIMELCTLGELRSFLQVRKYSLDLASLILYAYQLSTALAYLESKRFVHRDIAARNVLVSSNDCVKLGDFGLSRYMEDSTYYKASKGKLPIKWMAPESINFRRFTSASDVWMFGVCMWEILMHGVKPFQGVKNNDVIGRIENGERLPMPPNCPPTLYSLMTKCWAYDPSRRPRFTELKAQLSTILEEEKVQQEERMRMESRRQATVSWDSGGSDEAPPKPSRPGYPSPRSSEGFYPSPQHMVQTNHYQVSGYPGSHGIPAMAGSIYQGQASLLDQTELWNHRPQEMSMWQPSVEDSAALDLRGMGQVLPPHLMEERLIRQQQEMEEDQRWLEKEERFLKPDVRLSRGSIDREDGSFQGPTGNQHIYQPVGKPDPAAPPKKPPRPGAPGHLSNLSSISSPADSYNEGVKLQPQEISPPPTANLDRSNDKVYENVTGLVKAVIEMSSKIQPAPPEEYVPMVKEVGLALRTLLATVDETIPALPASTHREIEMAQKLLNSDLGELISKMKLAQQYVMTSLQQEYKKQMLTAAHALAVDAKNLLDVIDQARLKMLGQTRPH
Sequence of BTK (Q06187 whole entry, species assumed): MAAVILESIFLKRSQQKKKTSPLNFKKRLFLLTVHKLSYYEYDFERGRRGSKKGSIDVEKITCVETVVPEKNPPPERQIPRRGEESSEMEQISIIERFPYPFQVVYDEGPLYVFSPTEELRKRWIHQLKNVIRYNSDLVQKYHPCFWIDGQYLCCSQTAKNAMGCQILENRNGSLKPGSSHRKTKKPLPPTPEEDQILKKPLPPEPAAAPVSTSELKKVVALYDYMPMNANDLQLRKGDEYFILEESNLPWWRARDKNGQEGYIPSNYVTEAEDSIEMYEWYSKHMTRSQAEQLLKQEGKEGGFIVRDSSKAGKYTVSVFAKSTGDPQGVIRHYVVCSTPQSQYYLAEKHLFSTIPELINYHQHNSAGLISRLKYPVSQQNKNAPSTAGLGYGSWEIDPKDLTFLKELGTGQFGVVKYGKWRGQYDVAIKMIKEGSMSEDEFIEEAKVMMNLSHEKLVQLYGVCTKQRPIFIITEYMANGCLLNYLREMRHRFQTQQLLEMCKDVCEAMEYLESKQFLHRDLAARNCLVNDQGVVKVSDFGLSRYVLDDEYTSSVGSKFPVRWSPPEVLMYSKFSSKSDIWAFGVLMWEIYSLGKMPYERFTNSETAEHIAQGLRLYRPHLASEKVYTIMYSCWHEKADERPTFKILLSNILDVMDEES
Sequence of GST-PAK1 (Q13153 whole entry, the tested form may be a part): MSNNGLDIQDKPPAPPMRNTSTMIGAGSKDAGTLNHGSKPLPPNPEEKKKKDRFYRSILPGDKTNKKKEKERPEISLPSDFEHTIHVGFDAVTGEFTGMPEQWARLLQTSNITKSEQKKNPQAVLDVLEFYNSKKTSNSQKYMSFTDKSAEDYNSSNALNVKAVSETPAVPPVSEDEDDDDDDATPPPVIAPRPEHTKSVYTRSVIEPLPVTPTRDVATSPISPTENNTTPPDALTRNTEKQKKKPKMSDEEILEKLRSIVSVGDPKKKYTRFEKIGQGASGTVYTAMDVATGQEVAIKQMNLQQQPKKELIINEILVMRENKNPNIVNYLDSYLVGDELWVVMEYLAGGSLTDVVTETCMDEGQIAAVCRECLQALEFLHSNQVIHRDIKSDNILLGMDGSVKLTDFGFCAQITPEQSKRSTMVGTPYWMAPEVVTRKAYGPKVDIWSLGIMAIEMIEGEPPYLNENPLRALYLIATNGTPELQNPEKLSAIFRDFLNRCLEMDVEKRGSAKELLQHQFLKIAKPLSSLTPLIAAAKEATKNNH

On to `COc1cc(/C=C(\C#N)C(N)=O)cc(CSc2nc3ccccc3s2)c1O` [AG825], for which the “RAS induced PAK1 activation” value in the assay with PAK1 [1] was “block”. Also, the IC50 with PAK1 [1] (read-out: IC50, block of RAS induced activation of PAK1 and malignant transformation) is around 350 nM. Further, in [2], the RAS induced transformation result was “block”.
Turning to `COc1cc2ncnc(Nc3cccc(Cl)c3)c2cc1OC` [AG1478], in the assay with PAK1 [1], the “RAS induced PAK1 activation” value is recorded as “block”. The RAS induced transformation entry in assay [2] was “block”.
Consider `Cc1ccc(-c2nn(C(C)(C)C)c3ncnc(N)c23)cc1` [PP1], for which, in the assay with PAK1 [1], the “RAS induced PAK1 activation” value is recorded as “block”. Moreover, the RAS induced transformation result in assay [2] is on record as “block”.
In the case of AG879, the PAK1 kinase activity result in the assay with PAK1 [3] was “blocked quite strongly”. Besides, the “inhibition of kinase properties of GST-PAK1” value against GST-PAK1 is given as “did not inhibit”. The IC50 in assay [4] is around 10 nM; against ETK [7] (AG879 0.001-10 μM, two independent experiments), around 5 nM. Besides, in the assay with RAS cells, the “effect on anchorage dependent growth” value is recorded as “did not effect”. Moreover, at ETK-PAK1 association, the ETK-PAK1 association entry is “suppress”. In the assay on PAK1 [5], the “Tyr phosphorylation of PAK1” value is on record as “reduced”. Moreover, the “inhibitory effect on TEC” value on TEC is reported as “no inhibitory effect”. The “inhibitory effect on BTK” value at BTK is “no inhibitory effect”. The “inhibitory effect on ITK” value on ITK is given as “no inhibitory effect”. Moreover, the “Tyr phosphorylation of FAK” value at FAK (10 nM) is on record as “not at the lower concentration”; on FAK (100 nM), “suppressed”. Also, the figures for the “FAK association with ETK” value at FAK-ETK interaction (10 nM) and on FAK-ETK interaction (100 nM) were “not at the lower concentration” and “suppressed”, respectively. For the same compound, in the assay with FAK-PAK1 interaction, the FAK-PAK1 interaction result is on record as “inhibit”. The “growth of RAS induced sarcomas in vivo” value with RAS induced sarcomas was “suppressed”. In addition, on ErbB2, the ErbB2 inhibition result was “inhibitor”. In the assay on FLK-1, the FLK-1 inhibition entry was “inhibitor”. Also, the “tyrosine phosphorylation of ETK” value on ETK [6] (10 nM) was “inhibited”. In addition, the “level of the ETK protein” value at ETK [6] is given as “did not affect”. Also, the “Tyr phosphorylation of ETK” value on ETK [7] (10 nM, ETK immunoprecipitate) is on record as “inhibited”. Further, the “Tyr phosphorylation of PAK1 by ETK” value on ETK [7] (10 nM, ETK immunoprecipitate) is given as “inhibited”.
